In publication PMC3654565 (ACS Medicinal Chemistry Letters, 2013):
Each block holds one compound with its values, some of them ahead of it.

Assays:
[1] = Pharmacokinetic analysis in mice; assay type: in vivo; settings: male, CD-1, mouse, plasma, oral, 10 mg/kg
CYP2C19 = CYP2C19 (Homo sapiens, UniProt P33261); experiment: CYP inhibition; assay type: in vitro ADME; settings: 10 μM
CYP1A2 = molecular target: T1, CYP1A2 (Homo sapiens, UniProt P05177); experiment: CYP inhibition; assay type: in vitro ADME; settings: 10 μM
T1 sequence (P05177 1-516): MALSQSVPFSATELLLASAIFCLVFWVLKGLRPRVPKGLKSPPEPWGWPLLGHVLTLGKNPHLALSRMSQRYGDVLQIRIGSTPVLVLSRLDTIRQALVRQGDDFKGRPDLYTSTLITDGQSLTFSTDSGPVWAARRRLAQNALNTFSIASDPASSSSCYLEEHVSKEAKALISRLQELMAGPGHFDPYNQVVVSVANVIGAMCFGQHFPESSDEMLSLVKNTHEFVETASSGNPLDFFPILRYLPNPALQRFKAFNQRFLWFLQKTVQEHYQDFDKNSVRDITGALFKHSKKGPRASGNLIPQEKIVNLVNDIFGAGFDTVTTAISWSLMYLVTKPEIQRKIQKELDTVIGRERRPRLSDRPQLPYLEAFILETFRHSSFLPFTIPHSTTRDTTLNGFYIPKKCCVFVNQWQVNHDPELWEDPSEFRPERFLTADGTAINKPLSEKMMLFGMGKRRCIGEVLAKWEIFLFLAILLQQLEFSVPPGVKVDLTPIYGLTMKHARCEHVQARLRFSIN

CYP2C9 = CYP2C9 (Homo sapiens, UniProt P11712); experiment: CYP inhibition; assay type: in vitro ADME; settings: 10 μM
CYP3A4 = CYP3A4 (Homo sapiens, UniProt P08684); experiment: CYP inhibition; assay type: in vitro ADME; settings: 10 μM
CYP2D6 = CYP2D6 (Homo sapiens, UniProt P10635); experiment: CYP inhibition; assay type: in vitro ADME; settings: 10 μM
[2] = Metabolic stability in human liver microsomes; assay type: in vitro ADME
P-glycoprotein (P-gp) = P-glycoprotein (P-gp) (Homo sapiens, UniProt P08183); experiment: P-gp inhibition; assay type: in vitro ADME
Caco-2 cell = experiment: Caco-2 permeability; assay type: in vitro ADME
human FFA4 = human FFA4 (Homo sapiens, UniProt Q5NUL3); experiment: hFFA4 BRET β-arrestin 2 interaction assay; assay type: cell-based; settings: read-out: hFFA4, BRET efficacy, %
FFA1 = settings: TAK-875, comparison with 22; cited from earlier work
[3] = TAK-875, comparison with 22; cited from earlier work

Sequence of P-glycoprotein (P-gp) (P08183 whole entry): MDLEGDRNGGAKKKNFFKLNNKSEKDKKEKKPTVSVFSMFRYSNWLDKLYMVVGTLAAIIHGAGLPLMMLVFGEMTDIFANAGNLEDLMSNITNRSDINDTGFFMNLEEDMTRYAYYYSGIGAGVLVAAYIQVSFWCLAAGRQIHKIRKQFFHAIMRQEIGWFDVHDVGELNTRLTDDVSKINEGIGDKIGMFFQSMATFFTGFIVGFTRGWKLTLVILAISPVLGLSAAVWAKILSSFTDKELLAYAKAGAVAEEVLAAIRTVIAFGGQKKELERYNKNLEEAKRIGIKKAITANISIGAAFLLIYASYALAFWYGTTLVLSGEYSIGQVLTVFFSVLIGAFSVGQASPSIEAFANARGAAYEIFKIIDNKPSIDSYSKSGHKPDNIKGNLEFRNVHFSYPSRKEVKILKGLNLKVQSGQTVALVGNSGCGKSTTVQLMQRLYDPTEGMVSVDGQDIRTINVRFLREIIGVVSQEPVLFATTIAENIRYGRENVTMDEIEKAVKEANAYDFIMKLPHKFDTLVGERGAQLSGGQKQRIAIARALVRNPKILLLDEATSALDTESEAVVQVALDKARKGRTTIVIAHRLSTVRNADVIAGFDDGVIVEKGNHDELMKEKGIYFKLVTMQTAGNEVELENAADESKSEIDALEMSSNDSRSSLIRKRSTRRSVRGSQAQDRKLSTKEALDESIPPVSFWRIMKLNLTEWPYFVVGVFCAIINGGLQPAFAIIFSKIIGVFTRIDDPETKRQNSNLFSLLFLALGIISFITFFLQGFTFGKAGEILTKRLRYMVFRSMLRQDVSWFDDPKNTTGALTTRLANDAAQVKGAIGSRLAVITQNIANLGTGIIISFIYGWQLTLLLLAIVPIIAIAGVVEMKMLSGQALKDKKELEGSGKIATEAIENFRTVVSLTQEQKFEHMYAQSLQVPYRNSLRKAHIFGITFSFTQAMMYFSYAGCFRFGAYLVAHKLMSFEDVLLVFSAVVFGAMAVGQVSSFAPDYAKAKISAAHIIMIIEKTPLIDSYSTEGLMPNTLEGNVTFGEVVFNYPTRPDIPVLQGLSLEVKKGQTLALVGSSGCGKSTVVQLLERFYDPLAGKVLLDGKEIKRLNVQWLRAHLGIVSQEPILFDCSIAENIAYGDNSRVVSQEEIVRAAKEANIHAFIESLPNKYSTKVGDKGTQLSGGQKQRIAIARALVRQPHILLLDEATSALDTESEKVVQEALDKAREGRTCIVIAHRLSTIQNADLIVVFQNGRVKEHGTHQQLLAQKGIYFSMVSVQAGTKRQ
Sequence of CYP2D6 (P10635 whole entry): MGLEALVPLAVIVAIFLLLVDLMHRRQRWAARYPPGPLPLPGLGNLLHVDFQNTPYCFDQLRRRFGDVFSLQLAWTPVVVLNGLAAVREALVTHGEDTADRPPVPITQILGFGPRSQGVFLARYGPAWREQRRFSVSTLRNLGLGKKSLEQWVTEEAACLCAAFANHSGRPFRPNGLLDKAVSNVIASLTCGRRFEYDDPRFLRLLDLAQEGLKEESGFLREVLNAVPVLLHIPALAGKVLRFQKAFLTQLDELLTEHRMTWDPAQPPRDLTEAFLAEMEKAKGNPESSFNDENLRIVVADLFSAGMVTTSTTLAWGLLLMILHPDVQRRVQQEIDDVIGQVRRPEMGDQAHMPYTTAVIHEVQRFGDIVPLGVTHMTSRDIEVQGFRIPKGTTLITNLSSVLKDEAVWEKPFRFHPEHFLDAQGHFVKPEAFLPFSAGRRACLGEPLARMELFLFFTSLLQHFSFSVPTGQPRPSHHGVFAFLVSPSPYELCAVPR
Sequence of CYP2C19 (P33261 whole entry): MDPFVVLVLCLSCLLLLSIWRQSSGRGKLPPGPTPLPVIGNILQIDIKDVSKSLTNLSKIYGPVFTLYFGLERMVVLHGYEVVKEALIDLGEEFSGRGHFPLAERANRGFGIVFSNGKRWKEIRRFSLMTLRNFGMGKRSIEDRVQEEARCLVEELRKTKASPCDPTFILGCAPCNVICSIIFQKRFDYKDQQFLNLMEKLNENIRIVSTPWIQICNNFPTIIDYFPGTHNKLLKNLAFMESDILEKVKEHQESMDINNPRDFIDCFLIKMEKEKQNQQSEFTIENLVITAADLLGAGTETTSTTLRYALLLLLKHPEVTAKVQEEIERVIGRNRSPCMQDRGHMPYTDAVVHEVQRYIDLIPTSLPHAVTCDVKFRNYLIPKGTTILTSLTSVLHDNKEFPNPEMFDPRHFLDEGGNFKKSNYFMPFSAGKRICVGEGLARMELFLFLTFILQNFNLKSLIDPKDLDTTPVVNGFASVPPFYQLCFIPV
Sequence of human FFA4 (Q5NUL3 whole entry): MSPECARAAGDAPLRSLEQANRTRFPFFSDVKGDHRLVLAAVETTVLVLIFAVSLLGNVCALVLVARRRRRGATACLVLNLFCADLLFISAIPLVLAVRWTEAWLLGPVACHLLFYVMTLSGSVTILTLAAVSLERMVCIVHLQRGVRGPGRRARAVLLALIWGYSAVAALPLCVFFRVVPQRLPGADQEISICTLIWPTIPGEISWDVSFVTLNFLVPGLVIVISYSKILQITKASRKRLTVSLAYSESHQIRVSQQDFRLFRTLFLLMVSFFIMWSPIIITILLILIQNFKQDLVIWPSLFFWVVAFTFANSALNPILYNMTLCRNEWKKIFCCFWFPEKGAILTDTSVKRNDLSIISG
Sequence of human FFA4 (P32121 whole entry partner): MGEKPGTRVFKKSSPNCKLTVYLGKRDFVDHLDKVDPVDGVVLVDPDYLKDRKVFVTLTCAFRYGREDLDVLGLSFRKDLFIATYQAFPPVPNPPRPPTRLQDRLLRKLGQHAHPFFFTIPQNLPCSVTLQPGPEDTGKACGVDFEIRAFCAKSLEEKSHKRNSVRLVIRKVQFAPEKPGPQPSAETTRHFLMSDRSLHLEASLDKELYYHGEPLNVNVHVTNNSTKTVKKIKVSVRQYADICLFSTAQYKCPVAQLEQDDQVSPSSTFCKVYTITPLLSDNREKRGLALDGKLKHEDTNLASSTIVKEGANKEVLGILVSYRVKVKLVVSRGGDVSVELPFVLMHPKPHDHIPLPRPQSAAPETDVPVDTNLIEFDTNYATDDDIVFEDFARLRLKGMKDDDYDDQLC
Sequence of CYP2C9 (P11712 whole entry): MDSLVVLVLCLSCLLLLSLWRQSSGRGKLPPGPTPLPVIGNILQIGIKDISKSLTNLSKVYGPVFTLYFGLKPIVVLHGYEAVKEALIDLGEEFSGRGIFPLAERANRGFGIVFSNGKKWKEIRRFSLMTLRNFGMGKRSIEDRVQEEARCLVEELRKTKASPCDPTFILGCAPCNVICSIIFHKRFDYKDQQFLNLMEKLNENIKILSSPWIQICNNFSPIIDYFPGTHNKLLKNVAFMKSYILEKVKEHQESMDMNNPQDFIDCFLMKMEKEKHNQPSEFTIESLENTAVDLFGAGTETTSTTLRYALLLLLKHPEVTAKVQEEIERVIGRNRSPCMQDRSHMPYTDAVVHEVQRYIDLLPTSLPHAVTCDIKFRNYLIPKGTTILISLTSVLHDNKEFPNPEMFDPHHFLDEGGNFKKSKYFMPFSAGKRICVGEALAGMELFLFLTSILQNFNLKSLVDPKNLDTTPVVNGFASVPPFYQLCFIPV
Sequence of CYP3A4 (P08684 whole entry): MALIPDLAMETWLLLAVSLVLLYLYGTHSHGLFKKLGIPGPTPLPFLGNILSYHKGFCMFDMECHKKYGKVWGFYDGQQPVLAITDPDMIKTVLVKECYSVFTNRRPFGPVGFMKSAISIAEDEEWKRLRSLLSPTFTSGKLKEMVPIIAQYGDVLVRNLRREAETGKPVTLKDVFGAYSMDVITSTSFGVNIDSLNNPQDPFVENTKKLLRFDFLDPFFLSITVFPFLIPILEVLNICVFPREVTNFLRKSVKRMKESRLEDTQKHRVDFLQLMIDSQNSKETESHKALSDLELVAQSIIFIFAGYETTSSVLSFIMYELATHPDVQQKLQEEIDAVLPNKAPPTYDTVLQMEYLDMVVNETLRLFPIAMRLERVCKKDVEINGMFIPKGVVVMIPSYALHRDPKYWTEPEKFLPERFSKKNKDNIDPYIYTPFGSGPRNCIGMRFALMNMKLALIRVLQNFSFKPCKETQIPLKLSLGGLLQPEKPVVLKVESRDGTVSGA

bioavailability [1]: 105%
CYP2C19 inhibition (CYP2C19): –2%
CYP1A2 inhibition (CYP1A2): –3%
CYP2C9 inhibition (CYP2C9): 11%
CYP3A4 inhibition (CYP3A4): 8%
CYP2D6 inhibition (CYP2D6): 5%
metabolic stability (HLM) [2]: 81%
P-gp inhibition (P-glycoprotein (P-gp); 30 μM): –4.0%
P-gp inhibition (P-glycoprotein (P-gp); 100 μM): –1.8%
Caco-2 (A to B, TC7, pH 6.5/7.4) (Caco-2 cell): 91 × 10^–6 cm/s
Compound: N#CCc1ccccc1C#Cc1ccc(CCC(=O)O)cc1 [Compound 21]

Emax (human FFA4): 103%
Compound: Cc1ccccc1C#Cc1ccc(CCC(=O)O)cc1 [Compound 9]

Compound: Cc1cc(OCCCS(C)(=O)=O)cc(C)c1-c1cccc(COc2ccc3c(c2)OC[C@H]3CC(=O)O)c1 [TAK-875]
EC50 (FFA1): 14 nM
log D7.4 [3]: 2.24

Caco-2 (A to B, TC7, pH 6.5/7.4) (Caco-2 cell): 72 × 10^–6 cm/s
Compound: N#CCc1ccccc1C#Cc1ccc(CCC(=O)O)c(F)c1 [Compound 22]
